Here are results for one compound from paper PMC11423305, “Structure-Based Design of CBP/EP300 Degraders: When Cooperativity Overcomes Affinity” (JACS Au, 2024).

One test addresses T1, EP300 (Homo sapiens, UniProt Q09472).
T1 construct: quantification of CBP and EP300 levels by Western blotting following 16 h treatment of LP1 cells; endogenous in cells; host or cells: LP1 cells
In words: Quantification of EP300 degradation by Western blotting in LP1 cells. The test is classed as cell-based. As to conditions: 5 μM compound, 16 h, Western blot. On the procedure:
LP1 cells were cultured in DMEM (Gibco, 41966-029) supplemented with 15 % FBS (Sigma, F9665); MM1S and LNCaP cells in RPMI 1640 ATCC modification (Gibco, […]
DMEM/F12 (Gibco, 11320074) supplemented with 1 % non-essential amino acids […]
additionally supplemented with 1 % penicillin/streptomycin (Gibco, 15070-063), and cells maintained in a humidified incubator with 5 % CO2 at 37 °C. The identity of all lines (except for MM1S which were recently purchased from ATCC) was authenticated by STR profiling (performed by Microsynth).
Quantification of CBP/EP300 degradation by Western blotting
LP1 cells plated on 6 well plates were treated with the stated compounds at a final concentration of 0.1 % DMSO for the stated time. Cells were harvested on ice, washed in PBS and lysed in RIPA buffer (50 mM tris pH 7.5, 2 mM EDTA, 150 mM NaCl, 0.5 % sodium deoxycholate, 1 % Triton X100) supplemented with cOmplete ™ protease inhibitor cocktail (Roche). Protein concentrations were determined using the Pierce ™ BCA Protein Assay Kit (Thermo Scientific, 23227) and equal amounts were separated on 4-12 % ExpressPl us™ PAGE gels (GenScript, M41215). Proteins were transferred to PVDF membranes, the membranes were blocked with 5 % milk (Merk Millipore, 115363) in PBS-T and proteins were stained with the following antibodies at 4 °C overnight: CBP […]
BRD4 (Bethyl Laboratories, A301-985A50, diluted 1:2000) and vinculin (Invitrogen, 42H89L44, diluted 1:1000). For detection, membranes were incubated for 1 h at room temperature with HRP-conjugated secondary antibodies (Southern Biotech, anti-rabbit […]
SuperSignal™ West Pico PLUS Chemiluminescent Substrate (Thermo Scientific, 34580) and the Vilber Fusion-FX7 imager. Bands were quantified using ImageJ software and protein levels normalized to protein from DMSO treated cells run on the same membrane. For dose response curves, data was fitted using a four -parameter dose-response curve in GraphPad Prism v. 9.5.1, where the top is fixed at 100 %. The DC50 was defined as the PROTAC concentration resulting in 50 % remaining protein. […]
(In general: Immunoblotting shows a protein as a band on a membrane.)

In the next test the test system is LP1 cells. In words: Cell viability (resazurin), LP1. The test is classed as cell-based. As to conditions: Homo sapiens, LP-1, 72 h, 3 days. As to the method:
The primer sequences used were:
Gene Gene ID Forward Primer (5’-3’) Reverse primer (5’-3’)
myc NM_001354870.1 GTAGTGGAAAACCAGCC […]
crebbp NM_004380.3 TGTCACAGGGACAGGTGC […]
Cells were plated onto 96 well plates at the following densities in 90 μl volume: 3x104
LP1 cells/well or 5x10^3 LNCaP cells/well both plated same day as treatment, or 2x104
MM1S cells/well or 1.5x10^3 SH-SY5Y cells/well both plated day prior to treatment.
Compounds were added in 10 μl to give the stated concentrations with a final
concentration of 0.1 % DMSO. Following 3 days of compound treatment, resazurin
(Acros Organics, 189900010) was added at a f inal concentration of 86 μM and incubated
for the following times: MM1S 5 h, LP1 3 h, LNCaP 1 h 30 min, SH-SY5Y 6 h.
Fluorescence (excitation = 560 nm, emission = 590 nm) was measured using a
spectraMax M5 microplate reader (Molecular Devices) and cell viability was calculated
relative to DMSO treated cells on the same plate. Data was fitted using a four -parameter
dose-response curve in GraphPad Prism v. 9.5.1, where the top is fixed at 100 %. GI50
values were calculated as the concentration required to inhibit cell viability to 50 %
relative to DMSO treated cells after 3 days.
Sample digestion and clean up: Treated cells were washed in PBS and cell pellets
were then lysed in 4 % SDS/Tris-HCl, treated with High Intensity Focused Ultrasound […]
On the technique in general: Resazurin is reduced to fluorescent resorufin, in cell work by metabolically active cells.

Molecules are shown by their SMILES.

T1 sequence (Q09472 whole entry): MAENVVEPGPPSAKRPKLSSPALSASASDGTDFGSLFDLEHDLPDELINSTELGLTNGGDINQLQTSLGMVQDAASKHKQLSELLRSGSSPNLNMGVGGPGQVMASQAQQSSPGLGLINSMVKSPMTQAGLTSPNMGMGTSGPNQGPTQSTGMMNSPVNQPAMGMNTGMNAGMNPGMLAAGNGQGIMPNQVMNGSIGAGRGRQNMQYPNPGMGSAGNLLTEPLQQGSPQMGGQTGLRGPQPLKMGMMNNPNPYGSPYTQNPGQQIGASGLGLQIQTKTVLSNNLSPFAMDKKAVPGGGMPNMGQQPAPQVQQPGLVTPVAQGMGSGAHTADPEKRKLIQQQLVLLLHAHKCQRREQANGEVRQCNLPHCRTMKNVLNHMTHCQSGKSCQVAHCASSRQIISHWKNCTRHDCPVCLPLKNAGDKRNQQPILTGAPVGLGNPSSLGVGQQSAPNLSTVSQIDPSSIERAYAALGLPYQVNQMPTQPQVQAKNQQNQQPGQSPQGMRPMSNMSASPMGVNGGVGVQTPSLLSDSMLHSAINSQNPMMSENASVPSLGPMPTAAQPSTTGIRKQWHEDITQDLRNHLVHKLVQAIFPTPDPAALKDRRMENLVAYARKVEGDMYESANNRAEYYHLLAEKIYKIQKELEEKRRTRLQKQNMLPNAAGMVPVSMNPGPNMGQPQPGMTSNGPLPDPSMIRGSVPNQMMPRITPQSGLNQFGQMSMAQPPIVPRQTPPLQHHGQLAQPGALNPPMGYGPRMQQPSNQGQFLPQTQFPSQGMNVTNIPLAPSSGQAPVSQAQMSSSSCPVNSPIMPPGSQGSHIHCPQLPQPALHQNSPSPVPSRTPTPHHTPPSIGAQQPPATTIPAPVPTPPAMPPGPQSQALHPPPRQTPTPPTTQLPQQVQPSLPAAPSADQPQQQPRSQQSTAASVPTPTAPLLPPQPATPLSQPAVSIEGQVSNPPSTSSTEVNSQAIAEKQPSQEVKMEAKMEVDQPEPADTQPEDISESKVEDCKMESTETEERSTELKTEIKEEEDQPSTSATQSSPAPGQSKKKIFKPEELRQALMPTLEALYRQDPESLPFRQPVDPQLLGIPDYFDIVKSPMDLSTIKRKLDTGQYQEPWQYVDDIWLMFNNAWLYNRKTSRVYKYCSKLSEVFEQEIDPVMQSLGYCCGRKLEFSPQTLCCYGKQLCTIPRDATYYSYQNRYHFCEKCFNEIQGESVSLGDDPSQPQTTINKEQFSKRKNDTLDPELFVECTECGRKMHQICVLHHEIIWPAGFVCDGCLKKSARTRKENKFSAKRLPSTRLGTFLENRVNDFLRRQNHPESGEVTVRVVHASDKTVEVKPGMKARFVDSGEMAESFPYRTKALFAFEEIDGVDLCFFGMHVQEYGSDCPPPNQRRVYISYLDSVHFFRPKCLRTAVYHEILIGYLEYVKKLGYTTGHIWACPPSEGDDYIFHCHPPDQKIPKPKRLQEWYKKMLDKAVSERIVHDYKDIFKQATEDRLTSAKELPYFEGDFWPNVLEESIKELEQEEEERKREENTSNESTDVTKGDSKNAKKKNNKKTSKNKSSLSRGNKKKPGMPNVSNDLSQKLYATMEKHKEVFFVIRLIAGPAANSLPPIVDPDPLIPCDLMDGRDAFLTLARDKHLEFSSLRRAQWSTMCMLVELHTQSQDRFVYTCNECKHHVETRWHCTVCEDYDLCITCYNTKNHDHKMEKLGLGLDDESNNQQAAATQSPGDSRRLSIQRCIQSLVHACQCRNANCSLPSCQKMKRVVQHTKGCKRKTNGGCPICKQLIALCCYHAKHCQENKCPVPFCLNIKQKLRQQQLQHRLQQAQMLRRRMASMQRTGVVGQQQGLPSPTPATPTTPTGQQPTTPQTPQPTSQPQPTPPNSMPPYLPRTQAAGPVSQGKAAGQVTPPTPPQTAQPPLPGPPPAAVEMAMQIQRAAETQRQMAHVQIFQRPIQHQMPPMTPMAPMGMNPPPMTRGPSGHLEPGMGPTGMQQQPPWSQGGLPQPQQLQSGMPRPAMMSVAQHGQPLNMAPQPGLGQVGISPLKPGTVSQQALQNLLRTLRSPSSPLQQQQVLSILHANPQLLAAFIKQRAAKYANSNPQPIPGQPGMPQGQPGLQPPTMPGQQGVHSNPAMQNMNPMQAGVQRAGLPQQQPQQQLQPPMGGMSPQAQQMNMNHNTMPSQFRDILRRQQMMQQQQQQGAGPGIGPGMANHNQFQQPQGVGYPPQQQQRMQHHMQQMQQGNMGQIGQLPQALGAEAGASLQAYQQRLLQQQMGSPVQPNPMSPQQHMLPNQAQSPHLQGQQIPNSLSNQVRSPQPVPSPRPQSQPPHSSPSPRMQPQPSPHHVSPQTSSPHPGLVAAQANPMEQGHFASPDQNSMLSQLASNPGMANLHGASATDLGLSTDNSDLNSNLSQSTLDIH

Regarding `Cc1cc2c(NC(=O)c3cc(NC(=O)CCCCCCCCCCNc4cccc5c4C(=O)N(C4CCC(=O)NC4=O)C5=O)cc(-c4ccn(C)n4)c3)cccc2nn1` (centres unmarked) [dCE-2], at EP300, the “% remaining EP300” value was determined as 43%. In the test with LP1 cells, the GI50 stood at 1500 nM.

As usually defined, the GI50 is the concentration that inhibits growth by half. A high value points to lower sensitivity of the cells.
